Data as given in ChEMBL document CHEMBL5528008, “Design and synthesis of the first PARP-1 and proteasome dual inhibitors to treat breast cancer” (Eur J Med Chem, 2024).

Key:
20S proteasome = test: Inhibition of 20S proteasome (unknown origin) using […] as substrate; format: protein-complex assay, Homo sapiens
[1] = target: Poly [ADP-ribose] polymerase 1 (Homo sapiens, UniProt P09874); test: Inhibition of PARP-1 (unknown origin) using Femto-ECL as substrate preincubated for 2.7 hrs followed by substrate addition by chemiluminescence assay
BT-549 = test: Cytotoxicity against human BT-549 cells assessed as inhibition of cell growth incubated for 72 hrs by MTT assay; format: functional, cell-based; details: BT-549, 72 h
MDA-MB-231 = test: Cytotoxicity against human MDA-MB-231 cells assessed as inhibition of cell growth incubated for 72 hrs by MTT assay; format: functional, cell-based; details: MDA-MB-231, 72 h
MCF7 = test: Cytotoxicity against human MCF7 cells assessed as inhibition of cell growth incubated for 72 hrs by MTT assay; format: functional, cell-based; details: MCF7, 72 h

Sequence of Poly [ADP-ribose] polymerase 1 (P09874 whole entry): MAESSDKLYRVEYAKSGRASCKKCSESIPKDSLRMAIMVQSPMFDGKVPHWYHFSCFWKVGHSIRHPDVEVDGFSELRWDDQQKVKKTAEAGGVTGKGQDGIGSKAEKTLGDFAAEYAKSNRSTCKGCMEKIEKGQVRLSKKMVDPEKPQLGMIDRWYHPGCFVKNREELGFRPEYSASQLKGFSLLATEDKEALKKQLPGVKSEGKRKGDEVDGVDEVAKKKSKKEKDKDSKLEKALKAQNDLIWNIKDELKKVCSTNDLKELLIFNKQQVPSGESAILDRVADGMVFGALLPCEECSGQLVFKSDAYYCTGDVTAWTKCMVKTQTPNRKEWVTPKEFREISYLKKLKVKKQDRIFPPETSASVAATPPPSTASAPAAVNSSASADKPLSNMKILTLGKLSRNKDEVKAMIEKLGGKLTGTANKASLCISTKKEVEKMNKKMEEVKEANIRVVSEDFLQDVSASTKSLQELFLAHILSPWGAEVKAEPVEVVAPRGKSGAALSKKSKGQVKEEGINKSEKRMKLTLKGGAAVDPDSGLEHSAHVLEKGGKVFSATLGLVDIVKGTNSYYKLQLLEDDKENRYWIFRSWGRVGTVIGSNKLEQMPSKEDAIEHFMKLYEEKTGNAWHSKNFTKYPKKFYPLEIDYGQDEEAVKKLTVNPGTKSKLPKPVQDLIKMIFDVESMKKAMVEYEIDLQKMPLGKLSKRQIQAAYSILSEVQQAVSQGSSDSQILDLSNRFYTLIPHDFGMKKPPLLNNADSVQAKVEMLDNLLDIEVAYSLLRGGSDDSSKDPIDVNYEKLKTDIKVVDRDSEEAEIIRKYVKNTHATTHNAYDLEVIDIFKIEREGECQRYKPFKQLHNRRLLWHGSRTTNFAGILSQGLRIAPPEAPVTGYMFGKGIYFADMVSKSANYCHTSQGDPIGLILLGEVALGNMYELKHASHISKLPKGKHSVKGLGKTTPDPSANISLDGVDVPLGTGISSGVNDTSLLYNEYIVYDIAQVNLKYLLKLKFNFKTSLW

Row | SMILES | IC50 (20S proteasome) [nM] | IC50 [1] [nM] | IC50 (BT-549) [nM] | IC50 (MDA-MB-231) [nM] | IC50 (MCF7) [nM]
1 | COC[C@H](NC(=O)c1cc(Cc2n[nH]c(=O)c3ccccc23)ccc1F)C(=O)N[C@@H](CC(C)C)B1O[C@@H]2C[C@@H]3C[C@@H](C3(C)C)[C@]2(C)O1 | 21.4 | 247 | 109 | 101 | 40.8
2 | CC(C)C[C@H](NC(=O)CNC(=O)c1cc(Cc2ccc(=O)[nH]n2)ccc1F)B1O[C@@H]2C[C@@H]3C[C@@H](C3(C)C)[C@]2(C)O1 | 2150 | > 1000 |  |  | 
3 | CC(C)C[C@H](NC(=O)CNC(=O)c1cc(Cc2n[nH]c(=O)c3ccccc23)ccc1F)B1O[C@@H]2C[C@@H]3C[C@@H](C3(C)C)[C@]2(C)O1 | 157 | 2.1 | 97.7 | 249 | 355
4 | CCC[C@H](NC(=O)c1cc(Cc2n[nH]c(=O)c3ccccc23)ccc1F)C(=O)N[C@@H](CC(C)C)B1O[C@@H]2C[C@@H]3C[C@@H](C3(C)C)[C@]2(C)O1 | 103 | 203 | 605 | 338 | 87.9
5 | CC(C)C[C@H](NC(=O)[C@@H](NC(=O)c1cc(Cc2n[nH]c(=O)c3ccccc23)ccc1F)C(C)C)B1O[C@@H]2C[C@@H]3C[C@@H](C3(C)C)[C@]2(C)O1 | 98.3 | 151 | 13.3 | 20.8 | 174
6 | Cc1c(Cc2ccc(F)c(C(=O)N[C@@H](Cc3ccccc3)C(=O)N[C@@H](CC(C)C)B3O[C@@H]4C[C@@H]5C[C@@H](C5(C)C)[C@]4(C)O3)c2)n[nH]c(=O)c1C |  | > 1000 |  |  | 
7 | CC(C)C[C@H](NC(=O)[C@H](Cc1ccccc1)NC(=O)c1cc(COc2ccccc2C(N)=O)ccc1F)B1O[C@@H]2C[C@@H]3C[C@@H](C3(C)C)[C@]2(C)O1 |  | > 1000 |  |  | 
8 | Cc1c(Cc2ccc(F)c(C(=O)NCC(=O)N[C@@H](CC(C)C)B3O[C@@H]4C[C@@H]5C[C@@H](C5(C)C)[C@]4(C)O3)c2)n[nH]c(=O)c1C | 39.5 | 173 |  |  | 
9 | CC(C)C[C@H](NC(=O)[C@@H](NC(=O)c1cc(Cc2n[nH]c(=O)c3ccccc23)ccc1F)[C@H](C)O)B1O[C@@H]2C[C@@H]3C[C@@H](C3(C)C)[C@]2(C)O1 | 13.8 | 273 | 179 | 178 | 493
10 | CC(C)C[C@H](NC(=O)[C@H](C)NC(=O)c1cc(Cc2n[nH]c(=O)c3ccccc23)ccc1F)B1O[C@@H]2C[C@@H]3C[C@@H](C3(C)C)[C@]2(C)O1 | 132 | 118 | 41 | 37 | 20.8
11 | CC(C)C[C@H](NC(=O)[C@H](Cc1c[nH]c2ccccc12)NC(=O)c1cc(Cc2n[nH]c(=O)c3ccccc23)ccc1F)B1O[C@@H]2C[C@@H]3C[C@@H](C3(C)C)[C@]2(C)O1 | 42.6 | 28 | 216 | 297 | 45.1
12 | CC(C)C[C@H](NC(=O)[C@H](Cc1c[nH]c2ccccc12)NC(=O)c1cc(Cc2n[nH]c(=O)c3ccccc23)ccc1F)B(O)O | 56.1 | 98 |  |  | 
13 | CC(C)C[C@H](NC(=O)[C@H](Cc1ccccc1)NC(=O)c1cc(Cc2n[nH]c(=O)c3ccccc23)ccc1F)C(=O)[C@@]1(C)CO1 | 1420 |  |  |  | 
14 | CC(C)C[C@H](NC(=O)CNC(=O)c1cc(Cc2n[nH]c(=O)c3ccccc23)ccc1F)B(O)O | 386 | 4.1 |  |  | 
15 | CC(C)C[C@H](NC(=O)[C@H](Cc1ccccc1)NC(=O)c1cc(Cc2n[nH]c(=O)c3ccccc23)ccc1F)B1O[C@@H]2C[C@@H]3C[C@@H](C3(C)C)[C@]2(C)O1 | 24.7 | 98 | 84.9 | 63.6 | 58.6
16 | CC(C)C[C@H](NC(=O)CNC(=O)c1cc(Cc2n[nH]c(=O)c3ccccc23)ccc1F)C(=O)[C@@]1(C)CO1 | > 10000 |  |  |  | 
17 | CC(C)C[C@H](NC(=O)[C@H](Cc1ccc(O)cc1)NC(=O)c1cc(Cc2n[nH]c(=O)c3ccccc23)ccc1F)B1O[C@@H]2C[C@@H]3C[C@@H](C3(C)C)[C@]2(C)O1 | 47.6 | 116 | 348 | 328 | 980
18 | CC(C)C[C@H](NC(=O)[C@H](Cc1c[nH]c2ccccc12)NC(=O)c1cc(Cc2n[nH]c(=O)c3ccccc23)ccc1F)C(=O)[C@@]1(C)CO1 | 1060 |  |  |  | 
19 | CC(C)C[C@H](NC(=O)[C@H](CCc1ccccc1)NC(=O)c1cc(Cc2n[nH]c(=O)c3ccccc23)ccc1F)B1O[C@@H]2C[C@@H]3C[C@@H](C3(C)C)[C@]2(C)O1 | 34.5 | 100 | 294 | 29.5 | 14.6
20 | COC[C@H](NC(=O)c1cc(Cc2n[nH]c(=O)c(C)c2C)ccc1F)C(=O)N[C@@H](CC(C)C)B1O[C@@H]2C[C@@H]3C[C@@H](C3(C)C)[C@]2(C)O1 |  | > 1000 |  |  | 
21 | CC(C)C[C@H](NC(=O)[C@H](Cc1ccccc1)NC(=O)c1cc(Cc2n[nH]c(=O)c3ccccc23)ccc1F)B(O)O | 87.8 | 291 |  |  | 
22 | CC(C)C[C@H](NC(=O)[C@@H](NC(=O)c1cc(Cc2n[nH]c(=O)c3ccccc23)ccc1F)C(C)(C)C)B1O[C@@H]2C[C@@H]3C[C@@H](C3(C)C)[C@]2(C)O1 | 65.6 | 171 | 12.3 | 28.1 | 130
